In test [1] the test system is TGF-β receptors. The test can be described thus: Inhibition of specific binding of 125I-TGF-β2 to TGF-β receptors in mink lung epithelial cells. The settings on record: 0.1 nM 125I-TGF-β2, 2.5 hr at 0° C.; read-out: IC50 for inhibiting 125I-TGF-β2 binding to TGF-β receptors. The protocol:
(§1) Specific binding of ^125I-labeled TGF-β1, TGF-β2, and TGF-β3 (^125I-TGF-β1, ^125I-TGF-β2, and ^125I-TGF-β3) to TGF-β receptors in mink lung epithelial cells. ^125I-TGF-β1, ^125I-TGF-β2, and ^125I-TGF-β3 were prepared by iodination of TGF-β1, TGF-β2, and TGF-β3 with Na^125I as described previously (Ref. 7). The specific radioactivities of ^125I-TGF-β1, ^125I-TGF-β2, and ^125I-TGF-β3 were 1-3×10^5 cpm/ng. Mink lung epithelial cells were grown on 24-well clustered dishes to near confluence in Dulbecco's modified Eagle medium (DMEM) containing 10% fetal calf serum. The epithelial cells were incubated with 0.1 nM ^125I-TGF-β1, ^125I-TGF-β2, or ^125I-TGF-β3 both with and without 100-fold excess of unlabeled TGF-β1, TGF-β2, or TGF-β3 in binding buffer (Ref. 7). After 2.5 hr at 0° C., the cells were washed two times with binding buffer, and the cell-associated radioactivity was determined. The specific binding of ^125I-labeled TGF-β isoforms to TGF-β receptors in the cells was calculated by subtracting non-specific binding (in the presence of 100-fold excess of the unlabeled TGF-β isoforms) from total binding. All experiments were carried out in triplicate cell cultures.

The subject of test [2] is type V TGF-β receptor (TβR-V). The test can be described thus: 125I-TGF-β1-affinity labeling of cell-surface type V TGF-β receptor in mink lung epithelial cells. Conditions: various concentrations, FIG. 2 lanes 2-5. The test is classed as binding. How it is done:
^125I-TGF-β1-affinity labeling of cell-surface TGF-β receptors in mink lung epithelial cells. Mink lung epithelial cells grown on 60-mm Petri dishes were incubated with 0.1 nM […] the presence of various concentrations of peptide β1^25 (41-65) or peptide β3^25 (41-65) in binding buffer. After 2.5 hr at 0° C., ^125I-TGF-β1-affinity labeling was carried out in the presence of DSS as described. The ^125I-TGF-β1-affinity-labeled TGF-β receptors were analyzed by 5% SDS-polyacrylamide gel electrophoresis under reducing conditions and autoradiography.

Test [3] relates to TGF-β receptors. Nature of the test: Inhibition of specific binding of 125I-TGF-β1 to TGF-β receptors in mink lung epithelial cells. Conditions: 0.1 nM 125I-TGF-β1, 2.5 hr at 0° C.; read-out: IC50 for inhibiting 125I-TGF-β1 binding to TGF-β receptors. How it is done:
as §1, with “The specific binding of ^125I-labeled TGF-β isoforms to TGF-β receptors in the cells was calculated by subtracting non-specific binding (in the presence of 100-fold excess of the unlabeled TGF-β isoforms) from total binding.” left out

As a reminder, the IC50 is the midpoint of a concentration-inhibition curve. With “ANFCSGPCPYLRSADTTHSTVLGLY [peptide β3^25 (41-65)]”, the IC50 with TGF-β receptors [1] and in the test on TGF-β receptors [3] was about 20 µM each time. The “blocking the 125I-TGF-β1-affinity labeling of the type V TGF-β receptor” value in test [2] is “weak activity”.

(Values after patent publication US7723473B2, “Peptide antagonists of TGF-beta family members and therapeutic uses thereof” (St. Louis University, priority 1997, dated 2010).)
